Laboratory results: doi:10.1101/208439v1 (biorxiv, 2017)

Legend:
NSD2 = molecular target: T1, NSD2 (Homo sapiens, UniProt O96028); experiment: biochemical; parameters: MTase-Glo bioluminescence methyltransferase assay, full-length NSD2 with HeLa nucleosomes; conditions: read-out: MTase-Glo IC50
T1 construct: full length (residues 2-1365), N-terminal His tag, insect cell/baculovirus
T1 sequence (O96028 2-1365): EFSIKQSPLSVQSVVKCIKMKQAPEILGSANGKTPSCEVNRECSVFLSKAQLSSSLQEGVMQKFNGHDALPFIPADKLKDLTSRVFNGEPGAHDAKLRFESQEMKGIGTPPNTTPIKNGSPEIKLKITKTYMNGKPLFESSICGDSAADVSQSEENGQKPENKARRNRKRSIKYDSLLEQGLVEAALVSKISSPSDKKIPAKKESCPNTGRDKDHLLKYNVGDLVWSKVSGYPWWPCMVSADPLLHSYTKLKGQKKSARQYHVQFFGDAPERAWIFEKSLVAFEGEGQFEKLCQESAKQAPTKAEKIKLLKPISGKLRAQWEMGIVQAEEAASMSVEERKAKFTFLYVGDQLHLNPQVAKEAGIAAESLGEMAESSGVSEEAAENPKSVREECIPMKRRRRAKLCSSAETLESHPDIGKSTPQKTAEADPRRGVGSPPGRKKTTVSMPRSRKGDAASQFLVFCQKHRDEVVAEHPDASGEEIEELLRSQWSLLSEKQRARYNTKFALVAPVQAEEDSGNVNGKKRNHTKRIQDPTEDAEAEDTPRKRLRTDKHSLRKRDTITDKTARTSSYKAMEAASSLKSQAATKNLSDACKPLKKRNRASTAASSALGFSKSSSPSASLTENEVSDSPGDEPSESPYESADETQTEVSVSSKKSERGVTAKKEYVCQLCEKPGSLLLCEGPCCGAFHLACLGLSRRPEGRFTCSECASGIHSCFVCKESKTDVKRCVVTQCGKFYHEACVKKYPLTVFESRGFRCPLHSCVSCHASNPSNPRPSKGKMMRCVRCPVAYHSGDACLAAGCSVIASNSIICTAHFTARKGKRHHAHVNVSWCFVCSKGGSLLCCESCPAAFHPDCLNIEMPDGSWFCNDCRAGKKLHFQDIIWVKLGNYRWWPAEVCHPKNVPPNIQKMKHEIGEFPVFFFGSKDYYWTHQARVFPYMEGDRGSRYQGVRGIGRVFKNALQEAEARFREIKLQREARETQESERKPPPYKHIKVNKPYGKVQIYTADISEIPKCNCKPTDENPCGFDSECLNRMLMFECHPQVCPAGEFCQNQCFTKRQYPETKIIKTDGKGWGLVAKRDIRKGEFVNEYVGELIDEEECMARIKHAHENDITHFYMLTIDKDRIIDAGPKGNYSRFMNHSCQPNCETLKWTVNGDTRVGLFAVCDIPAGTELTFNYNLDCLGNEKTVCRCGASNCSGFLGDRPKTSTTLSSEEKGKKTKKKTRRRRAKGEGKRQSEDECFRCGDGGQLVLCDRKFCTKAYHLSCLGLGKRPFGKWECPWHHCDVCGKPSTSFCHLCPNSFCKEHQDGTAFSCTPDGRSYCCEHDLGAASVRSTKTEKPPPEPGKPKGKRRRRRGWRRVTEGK
Source text: A major challenge in screening for small molecule inhibitors is that native NSD2 requires nucleosomes as a substrate ([17]). […] Chemical libraries were screened in 3-dose point quantitative high-throughput screening (qHTS) format ([43]) with the Methyltransferase-Glo (MTase-Glo™) methyltransferase bioluminescence assay ([44]). A number of counter and orthogonal assays were also developed to characterize the hits from the primary screen. Confirmed hits were validated with a radiolabeled SAM substrate-based NSD2 activity assay and further interrogated with binding studies by surface plasmon resonance (SPR), methyltransferase profiling, and activity assessments in U-2 OS cells. […] Overall the reaction conditions were very similar.

PRMT7 = PRMT7 (Homo sapiens, UniProt Q9NVM4); experiment: biochemical; conditions: read-out: DA3003-1 IC50; inhibitor
PRMT7, sequence (Q9NVM4 whole entry): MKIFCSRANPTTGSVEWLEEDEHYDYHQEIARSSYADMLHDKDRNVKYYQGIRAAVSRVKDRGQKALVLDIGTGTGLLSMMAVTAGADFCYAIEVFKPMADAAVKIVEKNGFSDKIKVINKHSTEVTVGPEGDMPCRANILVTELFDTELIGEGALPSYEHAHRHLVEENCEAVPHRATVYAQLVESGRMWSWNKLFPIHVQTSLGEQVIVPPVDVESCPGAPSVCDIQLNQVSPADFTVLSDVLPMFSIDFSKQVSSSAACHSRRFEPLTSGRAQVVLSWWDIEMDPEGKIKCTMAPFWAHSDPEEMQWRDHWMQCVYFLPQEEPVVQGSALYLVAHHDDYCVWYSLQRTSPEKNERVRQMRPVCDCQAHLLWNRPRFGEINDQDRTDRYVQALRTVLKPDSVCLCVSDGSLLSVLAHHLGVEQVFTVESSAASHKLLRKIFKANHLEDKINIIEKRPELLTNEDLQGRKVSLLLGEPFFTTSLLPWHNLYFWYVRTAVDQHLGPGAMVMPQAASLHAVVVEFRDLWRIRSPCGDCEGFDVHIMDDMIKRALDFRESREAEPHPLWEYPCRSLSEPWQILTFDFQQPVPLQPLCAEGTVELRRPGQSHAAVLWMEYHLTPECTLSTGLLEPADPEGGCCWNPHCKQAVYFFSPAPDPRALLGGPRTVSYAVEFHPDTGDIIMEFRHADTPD

PRMT6 = PRMT6 (Homo sapiens, UniProt Q96LA8); conditions: read-out: DA3003-1 IC50; inhibitor
PRMT6, sequence (Q96LA8 whole entry): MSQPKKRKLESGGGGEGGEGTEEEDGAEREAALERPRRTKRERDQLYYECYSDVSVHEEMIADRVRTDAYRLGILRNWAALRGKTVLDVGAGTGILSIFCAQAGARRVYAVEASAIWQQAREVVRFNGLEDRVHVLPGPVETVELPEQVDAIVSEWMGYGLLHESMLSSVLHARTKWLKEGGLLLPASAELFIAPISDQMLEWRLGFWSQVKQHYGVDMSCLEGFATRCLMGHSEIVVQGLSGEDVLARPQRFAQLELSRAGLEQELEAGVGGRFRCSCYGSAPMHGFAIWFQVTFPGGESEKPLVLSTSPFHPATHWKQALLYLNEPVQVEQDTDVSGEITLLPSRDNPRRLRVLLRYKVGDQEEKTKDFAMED

Row | IC50 (NSD2) [µM] | IC50 (PRMT7) [nM] | IC50 (PRMT6) [nM] | Compound
1 | 15 | – | – | CC1(C)CCC(CN2CCN(c3ccc(C(=O)NS(=O)(=O)c4ccc(NCC5CCOCC5)c([N+](=O)[O-])c4)c(Oc4cnc5[nH]ccc5c4)c3)CC2)=C(c2ccc(Cl)cc2)C1 [ABT-199]
2 | – | 420 | 1000 | O=C1C(Cl)=C(NCCN2CCOCC2)C(=O)c2ncccc21 [DA3003-1]
